Earlier results, collected in US20260120816A1, “PREDICTION METHOD FOR PROTOPORPHYRINOGEN OXIDASE (PPO) INHIBITOR” (Pan Advanced Business Research, LLC, priority 2024, published 2026).

Conditions: control compound, Non Patent Literature 8

CC(=O)c1c(C)nn(C)c1O [compound B, 1-(5-hydroxy-1,3-dimethyl-1H-pyrazol-4-yl)ethanone]
herbicidal activity: no herbicidal activity at all
